In ChEMBL document CHEMBL3414492, “Enhancing the cellular anti-proliferation activity of pyridazinones as c-met inhibitors using docking analysis” (Eur J Med Chem, 2015):
Calls of active or inactive are those of the source. No cut-off for these calls is given here.

What was measured:
EBC-1 [1] = assay: (§1) Inhibition of cell proliferation of human EBC1 cells at 10 uM after 72 hrs by SRB assay; format: functional
[2] = target: T1, Hepatocyte growth factor receptor (Homo sapiens, UniProt P08581); assay: Inhibition of recombinant c-Met (unknown origin) at 10 uM using poly (Glu,Tyr)4:1 substrate incubated for 60 mins by ELISA method
NCI-H661 = assay: Inhibition of cell proliferation of human NCI-H661 cells after 72 hrs by SRB assay; details: NCI-H661, 72 h
[3] = Inhibition of cell proliferation of human MKN45 cells after 72 hrs by SRB assay; details: MKN-45, 72 h
SNU1 = assay: Inhibition of cell proliferation of human SNU1 cells after 72 hrs by SRB assay; details: SNU1, 72 h
[4] = Inhibition of cell proliferation of human EBC1 cells after 72 hrs by SRB assay; details: EBC-1, 72 h
[5] = Inhibition of cell proliferation of human SNU5 cells after 72 hrs by SRB assay; details: SNU-5, 72 h
[6] = target: T1, Hepatocyte growth factor receptor; assay: Inhibition of c-Met (unknown origin)
[7] = target: T1, Hepatocyte growth factor receptor; assay: Inhibition of recombinant c-Met (unknown origin) using poly (Glu,Tyr)4:1 substrate incubated for 60 mins by ELISA method
EBC-1 [8] = details: Homo sapiens, 1 uM
[9] = as §1; format: functional; details: EBC-1, 72 h
[10] = Inhibition of cell proliferation of human EBC1 cells at 1 uM after 72 hrs by SRB assay; details: EBC-1, 72 h, read-out: INH

Structure (SMILES)	inhibition (EBC-1 [1])	IC50 [4] [nM]	other results
CN(C)CCCCOC(=O)Nc1cccc(Cn2nc(Nc3ccccc3C(F)(F)F)ccc2=O)c1	inactive	–	inhibition [2]: 63.4%
CN1CCN(CCCOC(=O)Nc2cccc(Cn3nc(-n4ccc5ccc(F)cc54)ccc3=O)c2)CC1	–	≤ 100	IC50 (NCI-H661): 1600 nM; IC50 [3]: 700 nM; IC50 (SNU1): 3900 nM; IC50 [5]: 1200 nM
Cc1ccc(Nc2ccc(=O)n(Cc3cccc(NC(=O)OCCCCN(C)C)c3)n2)cc1	inactive	–	inhibition [2]: 55.5%
CN1CCN(CCCOc2cnc(-c3cccc(Cn4nc(-n5ccc6ccc(F)cc65)ccc4=O)c3)nc2)CC1	–	198	–
Nc1ccc(Cn2nc(Nc3ccccc3)ccc2=O)cc1	–	–	IC50 [6]: 10000 nM
COCCCOc1cnc(-c2cccc(Cn3nc(-n4ccc5ccc(F)cc54)ccc3=O)c2)nc1	–	272	–
CN(C)CCCCOC(=O)Nc1cccc(Cn2nc(-n3ccc4ccc(F)cc43)ccc2=O)c1	–	≤ 1000	–
CN(C)CCCCOC(=O)Nc1cccc(Cn2nc(Nc3cc(F)cc(F)c3)ccc2=O)c1	inactive	–	–
CN(C)CCCCOC(=O)Nc1cccc(Cn2nc(Nc3ccc(F)cc3)ccc2=O)c1	inactive	–	–
Cc1cccc(Nc2ccc(=O)n(Cc3cccc(NC(=O)OCCCCN(C)C)c3)n2)c1	inactive	–	–
Cc1ccccc1Nc1ccc(=O)n(Cc2ccc(NC(=O)OCCCCN(C)C)cc2)n1	–	–	IC50 [7]: > 10000 nM
COc1cnc(-c2cccc(Cn3nc(-n4ccc5ccc(F)cc54)ccc3=O)c2)nc1	–	> 1000	inhibition (EBC-1 [8]): inactive
CN(C)CCCCOC(=O)Nc1cccc(Cn2nc(-n3ccc4ccccc43)ccc2=O)c1	–	–	inhibition at 10 µM [9]: > 70%; inhibition at 1 µM [10]: < 50%
CN(C)CCCCOC(=O)Nc1cccc(Cn2nc(Nc3ccc(C(F)(F)F)cc3)ccc2=O)c1	inactive	–	–
CN1CCN(CCCCCOC(=O)Nc2cccc(Cn3nc(-n4ccc5ccc(F)cc54)ccc3=O)c2)CC1	–	≤ 1000	–
CN(C)CCOC(=O)Nc1cccc(Cn2nc(-n3ccc4ccc(F)cc43)ccc2=O)c1	–	≤ 1000	–
Cc1ccccc1Nc1ccc(=O)n(Cc2ccccc2NC(=O)OCCCCN(C)C)n1	–	–	IC50 [7]: > 10000 nM
CN(C)CCCCOC(=O)Nc1cccc(Cn2nc(Nc3cccc(Cl)c3)ccc2=O)c1	inactive	–	–
